Source: patent publication US8466169B2, “SF5 derivatives as PAR1 inhibitors, production thereof, and use as medicaments” (Sanofi, priority 2008, dated 2013)

These compounds were tested against T1, PAR1 (Homo sapiens, UniProt P25116) (assay: PAR1 binding test (radioligand displacement, membrane preparation)). Settings: human PAR1 receptor expressed in High Five insect cells, membrane 1 mg/ml, radioligand 20 nM, 60 minutes; read-out: Inhibition of binding IC50.
T1 sequence (P25116 22-425): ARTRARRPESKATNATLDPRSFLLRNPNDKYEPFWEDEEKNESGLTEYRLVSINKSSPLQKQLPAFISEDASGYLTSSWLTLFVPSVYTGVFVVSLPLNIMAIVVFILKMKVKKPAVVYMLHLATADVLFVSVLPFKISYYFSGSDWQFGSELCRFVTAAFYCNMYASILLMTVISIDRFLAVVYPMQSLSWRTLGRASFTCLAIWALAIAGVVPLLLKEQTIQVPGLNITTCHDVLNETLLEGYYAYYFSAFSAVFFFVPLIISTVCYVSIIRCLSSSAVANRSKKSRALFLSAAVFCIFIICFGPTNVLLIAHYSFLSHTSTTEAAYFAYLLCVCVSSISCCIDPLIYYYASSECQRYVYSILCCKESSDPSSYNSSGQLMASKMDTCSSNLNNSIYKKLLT
Parameters: expressed in transfected cells; host or cells: High Five insect cells (transient expression), membrane preparation
Method: The synthesized substances were examined in a PAR1 binding test. This tested whether the substances can inhibit the binding of a radioactively labeled PAR1 agonist known from the literature at the PAR1 receptor (Ho-Sam Ahn, Mol Pharm, 51:350-356, 1997).
The human PAR1 receptor was expressed transiently in High Five insect cells. From these cells, after 48 hours, a membrane preparation was produced by standard methods, aliquoted into 10 mM Tris-HCl; 0.3 mM EDTA; 1 mM EGTA; 250 mM sucrose pH 7.5, and stored at −80° C.
The substances were preincubated with the membrane at RT for 15 minutes, then the radioligand (ALA-(para-F-Phe)-Arg-ChA-homoArg-(3,4-^3H-Tyr)-NH2; approx. 40 Ci/mMol) was added. The end concentration of the radioligand in the test buffer (50 mM Tris-HCl; 10 mM MgCl2; 1 mM EGTA; 0.1% BSA; 2% DMSO) was 20 nM, that of the membrane 1 mg/ml. After an incubation time of 60 minutes, 25 μl of the mixture were transferred to a 96-well MultiScreenHTS FB microtiter filtration plate (from Millipore), which had been pretreated beforehand with a 0.75% aqueous polyethyleneimine solution for 5 hours at RT. Thereafter, with vacuum extraction, each well was washed four times with 300 μl of buffer (50 mM Tris-HCl; 10 mM MgCl2; 1 mM EGTA). The plate was then dried overnight, 100 μl of scintillator per well were added, and the plate was analyzed after 6 hours in a Wallac MicroBeta (from PerkinElmer) liquid scintillation counter. The nonspecific binding was determined in the presence of 100 μM SCH79797 (PAR-1 antagonist; from Tocris, Cat. No. 1592) and subtracted from all measurements. The 100% value used was a control without inhibitor. The % inhibition values of a substance dilution series were used to calculate the IC50 with the aid of nonlinear regression analysis according to the 4-parameter equation.

IC50 | SMILES
4800 nM | CCOc1cc2c(cc1C(=O)NC)C(=N)N(CC(=O)c1cc(NC(=O)C(F)(F)F)cc(S(F)(F)(F)(F)F)c1)C2 [Example 4, N-Methyl-6-ethoxy-3-imino-2-{2-[3-pentafluorosulfanyl-5-(2,2,2-trifluoroacetylamino)phenyl]-2-oxoethyl}-2,3-dihydro-1H-isoindole-5-carboxamide]
227 nM | CCOc1cc2c(c(F)c1OCC)C(=N)N(CC(=O)c1cc(NC(C)=O)cc(S(F)(F)(F)(F)F)c1)C2 [Example 14]
360 nM | CCOc1cc2c(c(F)c1OCC)C(=N)N(CC(=O)c1cc(NC(=O)CC(C)(C)C)cc(S(F)(F)(F)(F)F)c1)C2 [Example 17, N-{3-[2-(5,6-Diethoxy-7-fluoro-1-imino-1,3-dihydroisoindol-2-yl)acetyl]-5-pentafluorosulfanylphenyl}-3,3-dimethylbutyramide]
128 nM | CCOc1cc2c(c(F)c1OCC)C(=N)N(CC(=O)c1cc(Br)c(S(F)(F)(F)(F)F)cc1N)C2 [Example 20, 1-[2-Amino-5-bromo-4-(pentafluorosulfanyl)phenyl]-2-(5,6-diethoxy-7-fluoro-1-imino-1,3-dihydroisoindol-2-yl)ethanone]
512 nM | CCOc1cc(C(=O)CN2Cc3cc(OCC)c(OCC)c(F)c3C2=N)cc(S(F)(F)(F)(F)F)c1 [Example 24, 2-(5,6-Diethoxy-7-fluoro-1-imino-1,3-dihydroisoindol-2-yl)-1-[3-ethoxy-5-(pentafluorosulfanyl)phenyl]ethanone]
1700 nM | CCOc1cc2c(c(F)c1OCC)C(=N)N(CC(=O)c1cc(Cl)cc(S(F)(F)(F)(F)F)c1)C2 [Example 27, 1-[3-Chloro-5-(pentafluorosulfanyl)phenyl]-2-(5,6-diethoxy-7-fluoro-1-imino-1,3-dihydroisoindol-2-yl)ethanone]
225 nM | CCOc1cc2c(c(F)c1OCC)C(=N)N(CC(=O)c1cc(N3CCOCC3)cc(S(F)(F)(F)(F)F)c1)C2 [Example 30, 2-(5,6-Diethoxy-7-fluoro-1-imino-1,3-dihydroisoindol-2-yl)-1-[3-morpholin-4-yl-5-(pentafluorosulfanyl)phenyl]ethanone]

The compounds below were run against T1, PAR1 (assay: Inhibition of PAR1-mediated platelet aggregation induced by TRAP). Settings: washed platelets from healthy volunteer donors, TRAP (thrombin receptor-activating peptide) as agonist, 96-well format, AUC at 650 nm.
Type: cell-based
Parameters: endogenous in cells; host or cells: washed human blood platelets from volunteer donors
Method: Inhibition of PAR1-Mediated Platelet Aggregation
The biological testing of the substances took place in platelet aggregation induced by TRAP (thrombin receptor-activating peptide) in 96-well format. For this purpose, blood was taken from healthy volunteer donors in 20 ml syringes containing 2 ml of 3.13% sodium citrate solution. After centrifugation at 150×g for 20 minutes, the platelet-rich plasma (PRP) was separated off and admixed with 1 μl of PGE1 solution (500 μg/ml in ethanol)/ml of PRP. Incubation at RT for 5 minutes was followed by centrifugation at 120×g for 15 minutes to remove the leukocytes. The leukocyte-free PRP was transferred in 5 ml portions into 15 ml PP tubes and centrifuged at 360×g for 15 minutes in order to pellet the platelets. The plasma was then decanted off and the platelet sediment from 5 ml of PRP was resuspended in 1 ml of Tyrode's (120 mM NaCl, 2.6 mM KCl, 12 mM NaHCO3, 0.39 mM NaH2PO4×H2O, 10 mM HEPES, 0.35% BSA, 5.5 mM glucose, pH 7.4) and adjusted with Tyrode's to a platelet count of 3×10^5/microliter (μl). 13 ml of this cell suspension were then mixed with 866 μl of 10 mM CaCl2 solution, and 120 μl thereof were pipetted into each well of a 96-well plate containing 15 μl of the substance to be tested. After incubation at RT in the dark for 30 minutes, 15 μl of a TRAP solution (70-100 μM) were added as agonist, and kinetics were recorded at 650 nm in a SpectraMax 340 at 37° C. for 20 minutes while shaking. The areas under the curves of negative control (Tyrode's/DMSO) and positive control (15 μl of agonist/DMSO) were calculated and the difference was fixed as the 100% value. The substances to be tested were pipetted as serial dilutions in duplicate determination, the AUC was likewise determined for each substance concentration, and the % inhibition of the AUC compared with the control was calculated. On the basis of the % inhibition, the IC50 was calculated by nonlinear regression analysis according to the 4-parameter equation.

IC50 | SMILES
597 nM | CCOc1cc2c(cc1C(=O)NC)C(=N)N(CC(=O)c1cc(N(C)C)cc(S(F)(F)(F)(F)F)c1)C2 [Example 2, N-Methyl-2-[2-(3-dimethylamino-5-pentafluorosulfanylphenyl)-2-oxoethyl]-6-ethoxy-3-imino-2,3-dihydro-1H-isoindole-5-carboxamide]
2 nM | CCOc1cc2c(cc1C(=O)NC)C(=N)N(CC(=O)c1cc(NC)cc(S(F)(F)(F)(F)F)c1)C2 [Example 3, N-Methyl-6-ethoxy-3-imino-2-[2-(3-methylamino-5-pentafluorosulfanylphenyl)-2-oxoethyl]-2,3-dihydro-1H-isoindole-5-carboxamide]
17 nM | CCOc1cc2c(cc1C(=O)NC)C(=N)N(CC(=O)c1cc(NC(C)=O)cc(S(F)(F)(F)(F)F)c1)C2 [Example 8, N-Methyl-2-[2-(3-acetylamino-5-pentafluorosulfanylphenyl)-2-oxoethyl]-6-ethoxy-3-imino-2,3-dihydro-1H-isoindole-5-carboxamide]
718 nM | CCOc1cc2c(cc1C(=O)NC)C(=N)N(CC(=O)c1cc(N(S(C)(=O)=O)S(C)(=O)=O)cc(S(F)(F)(F)(F)F)c1)C2 [Example 10, N-Methyl-6-ethoxy-3-imino-2-{2-[3-dimethanesulfonylamino-5-(pentafluorosulfanyl)phenyl]-2-oxoethyl}-2,3-dihydro-1H-isoindole-5-carboxamide]
387 nM | CCOc1cc2c(c(F)c1OCC)C(=N)N(CC(=O)c1cc(N(C)C(C)=O)cc(S(F)(F)(F)(F)F)c1)C2 [Example 12, N-[3-[2-(5,6-diethoxy-7-fluoro-1-imino-1,3-dihydroisoindol-2-yl)acetyl]-5-(pentafluorosulfanyl)phenyl]-N-methylacetamide]
10600 nM | CCOc1cc2c(c(F)c1OCC)C(=N)N(CC(=O)c1cc(N)c(S(F)(F)(F)(F)F)cc1C)C2 [Example 16, 1-[5-Amino-2-methyl-4-(pentafluorosulfanyl)phenyl]-2-(5,6-diethoxy-7-fluoro-1-imino-1,3-dihydroisoindol-2-yl)ethanone]
175 nM | CCOc1cc2c(c(F)c1OCC)C(=N)N(CC(=O)c1cc(N3C(=O)CCC3=O)cc(S(F)(F)(F)(F)F)c1)C2 [Example 18, 1-{3-[2-(5,6-Diethoxy-7-fluoro-1-imino-1,3-dihydroisoindol-2-yl)acetyl]-5-pentafluorosulfanylphenyl}pyrrolidine-2,5-dione]
98 nM | CCOc1cc2c(c(F)c1OCC)C(=N)N(CC(=O)c1ccc(S(F)(F)(F)(F)F)cc1N)C2 [Example 19, 1-[2-Amino-4-(pentafluorosulfanyl)phenyl]-2-(5,6-diethoxy-7-fluoro-1-imino-1,3-dihydroisoindol-2-yl)ethanone]
28 nM | CCOc1cc2c(c(F)c1OCC)C(=N)N(CC(=O)c1cc(OC)cc(S(F)(F)(F)(F)F)c1)C2 [Example 21, 2-(5,6-Diethoxy-7-fluoro-1-imino-1,3-dihydroisoindol-2-yl)-1-[3-methoxy-5-(pentafluorosulfanyl)phenyl]ethanone]
